# Laboratory results reported in article PMC7146544, “Dual Plasmepsin-Targeting Antimalarial Agents Disrupt Multiple Stages of the Malaria Parasite Life Cycle” (Cell Host & Microbe, 2020).
# Entries after “also recorded” stand apart in the source; their conditions may differ.
# System: P. berghei liver stages
# Test: In vitro analysis of P. berghei liver parasites in HepG2 cells
# Assay type: cell-based, Plasmodium berghei
# Conditions: 100 nM from 24 hpi
# Protocol: To infect cells, freshly isolated PbmCherryLuci salivary gland sporozoites were resuspended in complete medium and 10^4 sporozoites added to each well (MOI 0.34) before spinoculation at 500 x g for 3 min. Sporozoites were allowed to infect cells for 3 h before washing with complete medium. […] The compound containing medium was changed the next morning before 48 hpi to prevent removal of detached cells and merosomes in the supernatant at later time points ([Sturm et al., 2006]). To measure inhibition of parasitised cell detachment in the treated cultures, each well was imaged for mCherry at 20x magnification using an Opera Phenix High Content Screening System (PerkinElmer) at 48 hpi (live cell microscopy) and again at 65 hpi following fixation with 4% formalin in PBS, and the number of mCherry^+ parasites counted using the Columbus Image Data Storage and Analysis System (PerkinElmer). Cell detachment was calculated as the percent of parasites lost from the monolayer between 48 – 65 hpi. The culture supernatant containing merosomes and detached parasitised cells from each well was collected at 65 hpi, washed once in complete media by centrifugation at 500 x g for 3 min, then i.v. injected into individual male Swiss mice. Daily Giemsa stained thin blood smears were monitored for patent blood infection as described previously.
# Following fixation at 65 hpi, infected hepatocyte monolayers were blocked and permeabilized in PBS containing 1% BSA and 0.1% Triton X-100 (blocking buffer) for 1 h before incubation with polyclonal Goat-anti-PbUIS4 (1:500) and Rabbit-anti-PyMSP1_19 antiserum (1:200) for 1 h. After 3 washes in PBS to remove primary antibodies, wells were incubated sequentially with secondary antibodies recognizing Goat IgG (Alexa Fluor 488; 1:500) and then Rabbit IgG (Alexa Fluor 633; 1:500) for 1 h, separated by 3 washes with PBS. All antibody incubations were performed in blocking buffer at room temperature protected from light, and 2 μg/mL DAPI was added to the last incubation with secondary antibody to stain DNA. The center of each well was then imaged across a 12 μm z stack at 63x magnification using an Opera Phenix (PerkinElmer) for the above fluorochromes as well as mCherry to reveal parasite cytoplasm. Data was transferred to Columbus (PerkinElmer) and at least 70 parasites per condition were then manually scored based on a previously described staging system ([Graewe et al., 2011]). […] More extensive membrane invaginations surrounding individual nuclei with well segmented parasite cytoplasm and intact UIS4 staining were scored as ‘merozoite’ stage. ‘Egressed’ parasites were classified as either well segmented merozoite stages with evidence for PVM breakdown, or largely intact PVM vacuoles in which significant loss of parasite material was evident (Figure S6).
smiles,measurement,setting,value
CCC1(CC)CC(=O)N([C@@H]2CCOc3ccc(C(=O)N[C@H]4CC(C)(C)Oc5ccccc54)cc32)C(=N)N1 [WM382],detachment of parasitized HepG2 cells at 65 hpi,,decrease in detachment; also recorded: reduced detachment of parasitized HepG2 cells
same,egress of exoerythrocytic merozoites from hepatocytes in vitro,,incomplete inhibitory effect; also recorded: reduced rates
same,liver parasite size and maturity at 65 hpi,,"increased size of parasites; also recorded: accumulation of larger, mature liver parasites containing merozoites without PVM degradation"
same,merozoite formation by liver stages,,normal
same,liver parasite number or size at 48 hpi,HepG2 cells,did not reduce parasite number or size
